In ChEMBL document CHEMBL1134110, “Anticonvulsant effects of new morphinan derivatives” (2001):

Columns and labels:
Assay type in all cases: functional
[1] = tested on: Rattus norvegicus; assay: The compound was examined for circling behavior (marginal activity) using automated videotracking system 30 min after intraperitoneal injection at the dose of 20 mg/Kg in 12 rats
[2] = tested on: Rattus norvegicus; assay: The compound was examined for circling behavior (marginal activity) using automated videotracking system 30 min after intraperitoneal injection at the dose of 40 mg/Kg in 12 rats
[3] = tested on: Rattus norvegicus; assay: Effect was expressed as mortality after injection of kainic acid (10 mg/kg) and the drug at the dose of 20 mg/Kg after 48 hr out of 19 animals
[4] = tested on: Rattus norvegicus; assay: Effect was expressed as mortality after injection of kainic acid (10 mg/kg) and the drug at the dose of 40 mg/Kg after 48 hr
[5] = tested on: Rattus norvegicus; assay: The compound was tested for anticonvulsive activity expressed as seizure score after 4 hr of injection of kainic acid (10 mg/kg) and the drug at the dose of 20 mg/Kg in 15 rats
[6] = tested on: Rattus norvegicus; assay: The compound was tested for anticonvulsive activity expressed as seizure score after 4 hr of injection of kainic acid (10 mg/kg) and the drug at the dose of 40 mg/Kg in 15 rats
[7] = tested on: Rattus norvegicus; assay: The compound was tested for anticonvulsive activity expressed as seizure score after 4 hr of injection of kainic acid (10 mg/kg) in 15 rats
[8] = tested on: Rattus norvegicus; assay: The compound was examined for circling behavior (marginal activity) using automated videotracking system 30 min after intraperitoneal injection at the dose of 5 mg/Kg in 12 rats

Compound | Absolute turn angular/3 min [1] | Absolute turn angular/3 min [2] | Mortality [3] | Mortality [4] | Seizure score [5] | Seizure score [6] | Seizure score [7] | Absolute turn angular/3 min [8]
C=CCN1CCC23CCCCC2C1Cc1ccc(OCC2CC2)cc13 (configuration not stated) | 175 | 242 | 5 | 4 | 2.7 | 2.2 | – | –
C=CCOc1ccc2c(c1)C13CCCCC1C(C2)NCC3 (configuration not stated) | 152 | 184 | 11 | 1 | 1.5 | 1 | – | –
COc1ccc2c(c1)C13CCCCC1C(C2)N(C)CC3 (stereo not drawn) [RACEMETHORPHAN] | 192 | 265 | 4 | 2 | 2.2 | 1.4 | – | –
C=C(C)[C@H]1CN[C@H](C(=O)O)[C@H]1CC(=O)O [KAINIC ACID] | – | – | – | – | – | – | 4.2 | –
C=CCN1CCC23CCCCC2C1Cc1ccc(OC)cc13 (configuration not stated) | 224 | 282 | 6 | 6 | 2.9 | 2.2 | – | –
C=CCOc1ccc2c(c1)C13CCCCC1C(C2)N(C)CC3 (configuration not stated) | 168 | 219 | 3 | 3 | 1.9 | 1.5 | – | –
CN1CCC23CCCCC2C1Cc1ccc(OCC2CC2)cc13 (configuration not stated) | 160 | 202 | 3 | 2 | 1.8 | 1.3 | – | –
COc1ccc2c(c1)C13CCCCC1C(C2)NCC3 (configuration not stated) | 186 | 258 | 4 | 4 | 2.4 | 2 | – | –
c1ccc(C2(N3CCCCC3)CCCCC2)cc1 [PHENCYCLIDINE] | – | – | – | – | – | – | – | 420
CN1CC[C@]23CCCC[C@H]2[C@H]1Cc1ccc(O)cc13 [LEVORPHANOL] | 310 | 384 | 5 | 4 | 2.8 | 1.8 | – | –
Oc1ccc2c(c1)C13CCCCC1C(C2)NCC3 (configuration not stated) | 194 | 262 | 5 | 4 | 2.5 | 2.1 | – | –
C=CCOc1ccc2c(c1)C13CCCCC1C(C2)N(CC1CC1)CC3 (configuration not stated) | 172 | 250 | 4 | 4 | 2.8 | 2 | – | –
